Measurements from ChEMBL document CHEMBL1201862, “PubChem BioAssay data set” (2004).
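Five compound concentrations were applied to cells in 96-well plates for 48 hours; endpoints were derived by simple linear interpolation of the resulting dose-response curve. GI50 = concentration required for 50% inhibition of growth.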 Activity calls are given as the source filed them. Cut-off read from the data, not from the text of the source: active = GI50 up to about 1.1 µM and inactive = higher.

Columns and labels:
Experiment in all cases: DTP human tumour cell line panel, 48 h
[1] = system: PC-3
[2] = system: SK-MEL-5
[3] = system: SK-MEL-28
[4] = system: 786-0
[5] = system: Hs-578T
[6] = system: SNB-19
[7] = system: SF-268
[8] = system: OVCAR-5
[9] = system: MDA-MB-231
[10] = system: SF-295
[11] = system: SN12C
[12] = system: NCI-H23
[13] = system: HOP-92
[14] = system: HCT-116
[15] = system: MCF7
[16] = system: BT-549
[17] = system: U-251
[18] = system: EKVX
[19] = system: K562

Measured: GI50

COC(=O)c1ccc(Nc2nc3[nH]cnc3c(=O)[nH]2)cc1
inactive: [1] > 100 µM | [2] > 100 µM | [3] > 100 µM | [4] > 100 µM | [5] > 100 µM | [6] > 100 µM | [7] 94 µM | [8] > 100 µM | [9] > 100 µM | [10] > 100 µM | [11] > 100 µM | [12] > 100 µM | [13] > 100 µM | [14] > 100 µM | [15] > 100 µM | [16] > 100 µM | [17] > 100 µM | [18] > 100 µM

C[n+]1c2ccccc2c2/c(=C\C#N)c3ccccc3n21
inactive: [1] 2.86 µM | [2] 6.53 µM | [3] 9.25 µM | [4] 3.5 µM | [5] 4.21 µM | [19] 5.42 µM | [6] 5.24 µM | [7] 6.27 µM | [8] 5.78 µM | [9] 4.43 µM | [10] 5.82 µM | [11] 3.42 µM | [12] 5.11 µM | [14] 3.03 µM | [15] 2.16 µM | [16] 3.42 µM | [17] 2.73 µM | [18] 2.44 µM

C=CCCC1(CCP(=O)(c2ccccc2)c2ccccc2)OCCO1
inactive: [1] > 100 µM | [2] > 100 µM | [3] > 100 µM | [4] > 100 µM | [5] > 100 µM | [19] > 100 µM | [6] > 100 µM | [7] > 100 µM | [8] > 100 µM | [9] > 100 µM | [10] > 100 µM | [11] > 100 µM | [12] > 100 µM | [14] > 100 µM | [15] > 100 µM | [16] > 100 µM | [17] > 100 µM | [18] > 100 µM

CCCCCC(C)SC1(C(=O)OC)CC(OC(C)=O)C(NC(C)=O)C([C@H](OC(C)=O)[C@@H](COC(C)=O)OC(C)=O)O1 (stereo not given in full)
inactive: [1] 67.3 µM | [2] 91.2 µM | [3] > 100 µM | [4] 47 µM | [5] 29.4 µM | [19] 92.9 µM | [6] > 100 µM | [7] > 100 µM | [8] > 100 µM | [9] 41.9 µM | [10] > 100 µM | [11] > 100 µM | [12] > 100 µM | [13] 44.4 µM | [14] 43.9 µM | [15] 43.7 µM | [16] 55.6 µM | [17] > 100 µM

Oc1ccc(-c2c3ccccc3c(-c3ccc(OCCBr)cc3)c3ccccc23)cc1
inactive: [1] 27.4 µM | [2] 19.1 µM | [3] 27.9 µM | [4] 21.9 µM | [5] 24.3 µM | [19] 42.1 µM | [6] 29.4 µM | [7] 56.1 µM | [8] 27.1 µM | [9] 23.6 µM | [10] 16 µM | [11] 22.1 µM | [12] 15.6 µM | [14] 37.2 µM | [15] 14.4 µM | [16] 30.1 µM | [17] 32.3 µM | [18] 32.9 µM

CCc1cc(O)c(Cl)c(C)c1Cl
inactive: [1] 19.5 µM | [2] 17.5 µM | [3] 19.5 µM | [4] 17.1 µM | [5] 17.8 µM | [6] 30.3 µM | [7] 20.9 µM | [8] 20.6 µM | [9] 27 µM | [10] 20 µM | [11] 15.6 µM | [12] 19 µM | [13] 12.8 µM | [14] 16.1 µM | [15] 23.2 µM | [16] 17.5 µM | [17] 18 µM | [18] 11.9 µM

CC1=CCC(=O)[C@]2(C)C(CC(=O)O)[C@]3(C)C4=C(C)C(c5ccoc5)C[C@@H]4O[C@@H]3[C@H](O)[C@@H]12 (stereo not given in full)
inactive: [1] > 100 µM | [2] > 100 µM | [3] > 100 µM | [4] > 100 µM | [5] > 100 µM | [6] > 100 µM | [7] > 100 µM | [8] > 100 µM | [9] > 100 µM | [10] > 100 µM | [11] > 100 µM | [12] > 100 µM | [13] > 100 µM | [14] > 100 µM | [15] > 100 µM | [16] > 100 µM | [17] > 100 µM | [18] > 100 µM

COC(=O)NN=C(c1ccc(Cl)cc1)c1ccc(Cl)cc1
inactive: [1] > 100 µM | [2] > 100 µM | [3] > 100 µM | [4] > 100 µM | [5] > 100 µM | [19] > 100 µM | [6] > 100 µM | [7] > 100 µM | [8] > 100 µM | [9] > 100 µM | [11] > 100 µM | [12] > 100 µM | [14] > 100 µM | [15] > 100 µM | [16] 80.2 µM | [17] > 100 µM | [18] > 100 µM

N[C@@H]1CCN(c2c(F)cc3c(=O)c(C(=O)O)cn4c3c2Oc2cc3c(ccc5ccccc53)cc2-4)C1
inactive: [1] 2.34 µM | [2] 2.92 µM | [3] > 21.1 µM | [4] 1.55 µM | [5] 15.9 µM | [19] 2.54 µM | [6] 3.3 µM | [8] 13.9 µM | [9] 4.56 µM | [10] 3.68 µM | [11] 2.08 µM | [12] 3.06 µM | [13] 2.72 µM | [14] 1.64 µM | [15] 3.13 µM | [16] 4.03 µM
active: [17] 0.906 µM

N/C(=N\c1ccc(Cl)c(Cl)c1)c1ccccc1N
inactive: [1] 19.3 µM | [2] 22.6 µM | [3] 24 µM | [4] 28.2 µM | [5] 12.3 µM | [19] 18.4 µM | [6] 31.3 µM | [7] 20.2 µM | [8] 36 µM | [9] 25.3 µM | [10] 40.6 µM | [12] 24.3 µM | [13] 2.88 µM | [14] 17.2 µM | [15] 52.1 µM | [16] 24 µM | [17] 30.1 µM | [18] 18.3 µM

COc1ccc(C2CC(=O)Oc3ccccc3O2)cc1 (stereo not given)
inactive: [1] > 100 µM | [2] > 100 µM | [3] > 100 µM | [4] > 100 µM | [5] 66.7 µM | [19] > 100 µM | [6] > 100 µM | [7] > 100 µM | [9] > 100 µM | [10] > 100 µM | [11] > 100 µM | [12] > 100 µM | [14] > 100 µM | [15] > 100 µM | [16] > 100 µM | [17] > 100 µM | [18] > 100 µM
